Laboratory results from PMC10726354, “Design, Synthesis, and Biological Evaluation of Small-Molecule-Based Radioligands with Improved Pharmacokinetic Properties for Imaging of Programmed Death Ligand 1” (Journal of Medicinal Chemistry, 2023).

Molecular target: T1, PD-L1 (Homo sapiens, UniProt Q9NZQ7)
T1 construct: expressed in transfected cells; host or cells: PC3 cells (human prostate carcinoma), stably transduced
Assay: Saturation binding assay on live PC3 PD-L1 overexpressing cells
Description: For assessing the binding affinity of compounds [^64Cu]Cu-1–6, PC3 cells transduced with PD-L1 were used. Dissociation constants in equilibrium (KD) and maximum number of binding sites (Bmax) were determined in a saturation binding assay. The assays were performed with the addition of 2.5% bovine serum albumin (BSA) in the medium to prevent unspecific binding to plastic wells, as reported previously for our first radioligands.[1]
For saturation binding, cells were trypsinized (0.05% Trypsin–EDTA, Gibco, USA), counted, and diluted to ∼160,000 cells/mL. 0.25 mL of the cell solution was then added to each well of a 48-well plate (Falcon Multiwell #353078) and grown for at least 2 days.
To determine the affinity (KD) and the number of binding sites (Bmax) of the herein described PD-L1 small-molecule ligands, saturation binding was performed in at least three independent experiments, as described before.[45] Cells were brought to room temperature followed by cooling on ice (each 15 min). The medium was removed and replaced with 200 μL assay buffer [PBS + 2.5% (w/v) BSA] for total binding (TB) conditions or assay buffer containing 300 μM BMS-1166 (in DMSO, resulting in 0.03% v/v) for the assessment NSB. After 15 min preincubation, 200 μL of each of the eight serial 1:1 dilutions (500 to 3.91 nM) of the respective radioligand was added (in triplicate). Cells were then incubated for 90 min at 4 °C, washed (3 × 1 min), and lysed in 500 μL of 0.1 M NaOH + 1% SDS. Radioactivity of the lysate was measured and decay corrected to a reference time (end of radiolabeling). An additional plate was subjected to the same conditions (preincubation, incubation, and washing) using PBS without BSA for each experiment, and the protein content of these lysates was determined by BCA assay. From CPM measurements, final values (pmol/mg protein) were calculated using the mean protein content and molar activity.
Processed data were then subjected to nonlinear iterative curve fitting (GraphPad Prism 9) to yield Bmax (in pmol/mg protein) and KD (in nM).

T1 sequence (Q9NZQ7 19-290): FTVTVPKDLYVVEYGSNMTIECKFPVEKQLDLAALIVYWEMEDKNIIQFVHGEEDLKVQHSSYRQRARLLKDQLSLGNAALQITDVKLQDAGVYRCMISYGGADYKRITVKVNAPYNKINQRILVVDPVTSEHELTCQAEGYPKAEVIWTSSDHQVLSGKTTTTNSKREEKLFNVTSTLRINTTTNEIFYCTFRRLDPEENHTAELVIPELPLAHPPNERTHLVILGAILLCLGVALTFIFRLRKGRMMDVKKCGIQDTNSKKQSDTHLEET

## Cc1c(COc2cc(OCc3cccc(C#N)c3)c(CN3C[C@H](O)C[C@@H]3C(=O)O)cc2Cl)cccc1-c1ccc2c(c1)OCCO2 [BMS-1166, reference compound]
  binding blocked in the saturation assay: ~80%
